Test results taken from PMC11181328 (Journal of Medicinal Chemistry, 2024).
Where a name gives a salt, the structure may show the parent alone. Read-outs that look alike come from different tables or passages of the source.

Legend:
[1] = system: male Swiss Webster mice; assay: Warm-water tail immersion assay, antagonism of morphine; format: in vivo, mouse; conditions: s.c. 5 min prior to morphine
[2] = system: male Swiss Webster mice; assay: Warm-water tail immersion assay, time course study; format: in vivo, mouse
[3] = molecular target: T1, DOR (Homo sapiens, UniProt P41143); conditions: read-out: radioligand binding affinity (Ki, nM) DOR; [3H]diprenorphine; cited from earlier work
T1 construct: expressed in transfected cells; membrane homogenate

[4] = system: male Swiss Webster mice; conditions: warm-water tail immersion; cited from earlier work
[5] = system: male Swiss Webster mice; assay: Locomotor activity assay; format: in vivo, mouse; conditions: s.c., 30 min session
Experimental: This hypolocomotion could result in false positives in assays of evoked antinociception such as WWTI.[115] Thus, a locomotor activity assay was utilized to assess this end point in accordance with previous studies.[28] In brief, the day prior to testing, mice were placed in the open field chamber for acclimation. On the test day, they were injected with compounds 21, 23, NLF, or vehicle and immediately placed back into the open field chamber. Photo beam breaks then recorded the mouse’s locomotion over a 30 min test period.
Six open field activity chambers (Med Associates, St. Albans, VT) were used in the locomotor activity study. Each chamber is located inside a sound-attenuating cubicle (Med Associates) and is equipped with a ventilation system. The interior of the chamber consists of a 27 × 27 cm plexiglass enclosure wired with photobeam cells and connected to a computer console that monitors the activity of the animal.
The day before the experiment, mice were acclimated to the activity chambers for a period of 30 min. On the day of the experiment, mice were administered vehicle or test compound s.c., placed into the activity chambers immediately and activity was monitored and recorded for a period of 30 min.
The primary dependent measures are total (1) distance traveled (cm), (2) ambulatory counts, (3) vertical counts, and (4) average speed (cm/s) within the 30 min session. Data are shown as mean ± SEM. Data were compared using one-way or two-way ANOVA as appropriate and a significant ANOVA was followed by a Dunnet’s post hoc test as appropriate. Statistical significance was defined as p < 0.05.

[6] = system: male Swiss Webster mice; assay: Warm-water tail immersion assay, receptor selectivity study; format: in vivo, mouse
[7] = system: male and female Sprague–Dawley rats; conditions: intravenous, FR5 schedule of reinforcement, 2 h sessions
[8] = molecular target: T1, DOR; assay: Competitive radioligand binding assay, DOR
[9] = molecular target: T2, KOR (Mus musculus, UniProt P33534); assay: [35S]-GTPγS functional assay, KOR; format: biochemical; conditions: for EC50: mKOR-CHO membranes; for Emax: percent of U50,488 full agonist control
T2 construct: expressed in transfected cells; membrane homogenate

[10] = molecular target: T3, MOR (Mus musculus, UniProt P42866); assay: Competitive radioligand binding assay, MOR; set-up: expressed in transfected cells; membrane homogenate
[11] = molecular target: T1, DOR; assay: [35S]-GTPγS functional assay, DOR; format: biochemical; conditions: for EC50: hDOR-CHO membranes; for Emax: percent of SNC80 full agonist control
[12] = system: male Swiss Webster mice; assay: Warm-water tail immersion assay, agonism (single dose screen and potency); format: in vivo, mouse; conditions: for antinociception compared to the vehicle group / percent MPE: single dose 10 mg/kg s.c.; for antinociception compared to the vehicle group: 20 min; for ED50: Mus musculus, sc, read-out: potency ED50 [95% CI] mg/kg, s.c., 20 min prior to tail withdrawal latency measurement, male Swiss Webster mice; for percent MPE: withdrawal latency 20 min after administration
[13] = molecular target: T3, MOR; conditions: percent of DAMGO; MOR functional activity first published; cited from earlier work
[14] = molecular target: T2, KOR; assay: Competitive radioligand binding assay, KOR; conditions: for selectivity ratio δ/κ / selectivity ratio μ/κ: ratio of Ki values
[15] = in vitro; conditions: human, s9
[16] = in vitro; conditions: Sprague-Dawley, rat, s9
[17] = molecular target: T3, MOR; assay: [35S]-GTPγS functional assay, MOR; format: biochemical; set-up: expressed in transfected cells; membrane homogenate; conditions: for EC50: mMOR-CHO membranes; for Emax: read-out: [35S]-GTPγS functional activity MOR Emax (%)
[18] = [3H]naloxone, mMOR-CHO membranes
[19] = [3H]naloxone, mMOR-CHO membranes, read-out: radioligand binding affinity (Ki, nM) MOR
[20] = [3H]diprenorphine, mKOR-CHO membranes

| Compound | EC50 [9] | radioligand binding affinity (Ki, nM) MOR [10, 18] | EC50 [11] | antinociception compared to the vehicle group [12] | Emax [9] | Ki [8] | Ki [10] | EC50 [17] | Ki [14] | other results |
| --- | --- | --- | --- | --- | --- | --- | --- | --- | --- | --- |
| C=CCN1CC[C@]23c4c5ccc(O)c4O[C@H]2C(=O)CC[C@@]3(O)[C@H]1C5 [naloxone, Naloxone HCl] |  |  |  |  |  |  |  |  |  | blockade of morphine antinociception [1]: sufficiently antagonized morphine antinociception |
| CN(C(=O)/C=C/c1ccoc1)[C@@H]1CC[C@@]2(O)[C@H]3Cc4ccc(O)c5c4[C@@]2(CCN3CC2CC2)[C@H]1O5.Cl [NLF, Nalfurafine, reference compound] |  |  |  |  |  |  |  |  |  | antinociceptive effects significant until (time postinjection) ([2]; 0.1 mg/kg s.c.): 1 h; return to the baseline postinjection ([2]; 0.1 mg/kg s.c.): 9 h; Ki [3]: 116 ± 20.9 nM; potency ED50 [95% CI] mg/kg [4]: 0.046 [0.016–0.126] mg/kg; locomotor activity [5]: slight dose-dependent trends for decreased locomotion; average speed by time versus vehicle ([5]; Figure 6F–H): significantly different from vehicle; antagonism of antinociceptive effects by nor-BNI (KOR antagonist) pretreatment ([6]; 10 mg/kg nor-BNI s.c. 24 h prior to 0.1 mg/kg test compound s.c. (23 also 0.05 mg/kg)): significantly lower; antagonism of antinociceptive effects by β-FNA (MOR antagonist) pretreatment ([6]; 10 mg/kg β-FNA s.c. 24 h prior to 0.1 mg/kg test compound s.c.): not antagonized by β-FNA; antagonism of antinociceptive effects by NTI (DOR antagonist) pretreatment ([6]; 15 mg/kg NTI s.c. 30 min prior to 0.1 mg/kg test compound s.c. (23 also 0.05 mg/kg)): significantly lower; antagonism of antinociceptive effects by NTI and nor-BNI pretreatment together ([6]; nor-BNI 10 mg/kg + NTI 15 mg/kg s.c. prior to test compound): did not result in a more drastic decrease than either antagonist alone; reinforcing effect (number of infusions earned versus saline) [7]: did not function as a reinforcer |
| Cl.O=C(CCc1ccco1)N[C@@H]1CC[C@@]2(O)[C@H]3Cc4ccc(O)c5c4[C@@]2(CCN3CC2CC2)[C@H]1O5 [Compound 16, 17-Cyclopropylmethyl-3,14β-dihydroxy-4,5α-epoxy-6β-[3′-(furan-2″-yl)propanamido]morphinan Hydrochloride] | 1.62 ± 0.12 nM | subnanomolar | 16.8 ± 2.96 nM | lack of significant antinociceptive effect |  |  |  |  |  | Ki ([8]; [3H]diprenorphine, hDOR-CHO membranes, read-out: radioligand binding affinity (Ki, nM) DOR): 33 ± 3.58 nM; Ki [10, 19]: 0.28 ± 0.02 nM; [35S]-GTPγS functional activity MOR Emax (%) [13]: above 40%; radioligand binding affinity (Ki, nM) KOR [14, 20]: subnanomolar; Ki ([14]; [3H]diprenorphine, mKOR-CHO membranes, read-out: radioligand binding affinity (Ki, nM) KOR): 0.61 ± 0.07 nM |
| Cl.O=C(CCc1ccoc1)N[C@@H]1CC[C@@]2(O)[C@H]3Cc4ccc(O)c5c4[C@@]2(CCN3CC2CC2)[C@H]1O5 [Compound 8, 17-Cyclopropylmethyl-3,14β-dihydroxy-4,5α-epoxy-6β-[3′-(furan-3″-yl)propanamido]morphinan Hydrochloride] |  | subnanomolar |  | lack of significant antinociceptive effect | 95.9 ± 1.43% |  |  |  |  | Ki [10, 19]: 0.21 ± 0.01 nM; [35S]-GTPγS functional activity MOR Emax (%) [13]: above 40% |
| O=C(O)Cc1ccccc1Nc1c(Cl)cccc1Cl [diclofenac, reference compound] |  |  |  |  |  |  |  |  |  | half-life at 1 h, 1 µM [15]: 0.308 h; microsomal CLint at 1 h, 1 µM [15]: 37.4 µL/min/mg; half-life at 1 h, 1 µM [16]: 1.7 h; microsomal CLint at 1 h, 1 µM [16]: 6.8 µL/min/mg |
| O=C(/C=C/c1ccco1)N[C@@H]1CC[C@@]2(O)[C@H]3Cc4cccc5c4[C@@]2(CCN3CC2CC2)[C@H]1O5 [Compound 20, 17-Cyclopropylmethyl-4,5α-epoxy-6β-[(2E)-3′-(furan-2″-yl)prop-2-enamido]-14β-hydroxymorphinan Hydrochloride] | 178 ± 18.1 nM |  | 860 ± 148 nM | lack of significant antinociceptive effect | 99.7 ± 5.88% | 551 ± 64 nM | 42.4 ± 2.34 nM | 1140 ± 984 nM | 7.03 ± 0.92 nM | Emax [11]: > 80%; Emax [17]: 12.8 ± 3%; selectivity ratio δ/κ [14]: 78; selectivity ratio μ/κ [14]: 6 |
| O=C(CCc1ccco1)N[C@H]1CC[C@@]2(O)[C@H]3Cc4cccc5c4[C@@]2(CCN3CC2CC2)[C@H]1O5 [Compound 10, 17-Cyclopropylmethyl-4,5α-epoxy-6α-[3′-(furan-2″-yl)propanamido]-14β-hydroxymorphinan Hydrochloride] | 442 ± 29.9 nM |  | 348 ± 40.2 nM | lack of significant antinociceptive effect | 86.5 ± 1.55% | 90.2 ± 13 nM | 53.1 ± 6.06 nM | 278 ± 107 nM | 73.8 ± 12.2 nM | Emax [11]: > 80%; Emax [17]: 10.2 ± 1.33%; selectivity ratio δ/κ [14]: 1; selectivity ratio μ/κ [14]: 1; Selectivity Ratio DOR/KOR ([14]; supplement csv): 1; Selectivity Ratio MOR/KOR ([14]; supplement csv): 1 |
| CN(C(=O)CCc1ccco1)[C@@H]1CC[C@@]2(O)[C@H]3Cc4cccc5c4[C@@]2(CCN3CC2CC2)[C@H]1O5 [Compound 11, 17-Cyclopropylmethyl-4,5α-epoxy-6β-[3′-(furan-2″-yl)-N-methylpropanamido]-14β-hydroxymorphinan Hydrochloride] | 146 ± 27.1 nM |  | 1100 ± 108 nM | lack of significant antinociceptive effect | 109 ± 5.9% | 532 ± 92.5 nM | 93.6 ± 10.4 nM | 5620 ± 2130 nM | 50.4 ± 6.84 nM | Emax [11]: 61.7 ± 4.27%; Emax [17]: 22.9 ± 2.39%; selectivity ratio δ/κ [14]: 11; selectivity ratio μ/κ [14]: 2 |
| Cl.O=C(CCc1ccoc1)N[C@H]1CC[C@@]2(O)[C@H]3Cc4ccc(O)c5c4[C@@]2(CCN3CC2CC2)[C@H]1O5 [Compound 6, 17-Cyclopropylmethyl-3,14β-dihydroxy-4,5α-epoxy-6α-[3′-(furan-3″-yl)propanamido]morphinan Hydrochloride] |  | subnanomolar |  | lack of significant antinociceptive effect | 80.3 ± 4.73% |  |  |  |  | Ki [10, 19]: 0.44 ± 0.1 nM; [35S]-GTPγS functional activity MOR Emax (%) [13]: 27.62 ± 1.96% |
| O=C(/C=C/c1ccco1)N[C@H]1CC[C@@]2(O)[C@H]3Cc4ccc(O)c5c4[C@@]2(CCN3CC2CC2)[C@H]1O5 [Compound 22, 17-Cyclopropylmethyl-3,14β-dihydroxy-4,5α-epoxy-6α-[(2E)-3′-(furan-2″-yl)prop-2-enamido]morphinan Hydrochloride] | 13.7 ± 2.52 nM | subnanomolar | 21.1 ± 1.41 nM |  |  | 8.75 ± 0.58 nM | 0.53 ± 0.06 nM | 2.97 ± 0.45 nM | 1.08 ± 0.03 nM | ED50 [12]: 4.08 mg/kg; percent MPE [12]: ≥ 80% |
| CN1CC[C@]23c4c5ccc(O)c4O[C@H]2[C@@H](O)C=C[C@H]3[C@H]1C5 [morphine, (-)-Morphine sulfate pentahydrate, reference compound] |  |  |  |  |  |  |  |  |  | effects back to baseline ([2]; morphine 10 mg/kg s.c.): 5 h; time of significant antinociception postinjection ([2]; morphine 10 mg/kg s.c.): 30 to 60 min; percent MPE [12]: 100% |
| O=C(/C=C/c1ccco1)N[C@@H]1CC[C@@]2(O)[C@H]3Cc4ccc(O)c5c4[C@@]2(CCN3CC2CC2)[C@H]1O5 [Compound 24, 17-Cyclopropylmethyl-3,14β-dihydroxy-4,5α-epoxy-6β-[(2E)-3′-(furan-2″-yl)prop-2-enamido]morphinan Hydrochloride] | 0.54 ± 0.11 nM | subnanomolar | 13.1 ± 2.09 nM |  |  | 12.8 ± 2.37 nM | 0.3 ± 0.02 nM | 6.76 ± 1.99 nM | 0.17 ± 0.02 nM | ED50 [12]: 3.32 mg/kg; percent MPE [12]: ≥ 80%; radioligand binding affinity (Ki, nM) KOR [14, 20]: subnanomolar |
